The results in this text go back to US10508285B2, “Method for screening of genes conferring increased tolerance to herbicides” (priority 2014, dated 2019).

Molecules are shown by their SMILES.

The subject of data set [1] is Cytochrome P450 wildtype (Zea mays). Kind of data set: Herbicide tolerance of transiently transformed tobacco leaf discs, PSII yield (PAM imaging). The note with it: IC50 of PSII yield inhibition, Nicotiana benthamiana leaf discs expressing Zea mays Cytochrome P450 wildtype versus empty vector-transformed leaf discs.
The test system of data set [2] is Protoporphyrinogen IX Oxidase (PPO) wildtype. Described as above. The class given is cell-based. The note with it: IC50 of PSII yield inhibition, Nicotiana benthamiana leaf discs expressing Alopecurus myosuroides PPO wildtype versus empty vector-transformed leaf discs.
The subject of data set [3] is Protoporphyrinogen IX Oxidase (PPO) L397Q_F420M. In kind it is cell-based, Amaranthus tuberculatus.
Data set [4] addresses T1, Transketolase wildtype (Spinacia oleracea) (Spinacia oleracea, UniProt O20250).
T1 construct: expressed in transfected cells; host or cells: Nicotiana benthamiana leaves, Agrobacterium tumefaciens GV2260 infiltration
T1 sequence (O20250 67-741): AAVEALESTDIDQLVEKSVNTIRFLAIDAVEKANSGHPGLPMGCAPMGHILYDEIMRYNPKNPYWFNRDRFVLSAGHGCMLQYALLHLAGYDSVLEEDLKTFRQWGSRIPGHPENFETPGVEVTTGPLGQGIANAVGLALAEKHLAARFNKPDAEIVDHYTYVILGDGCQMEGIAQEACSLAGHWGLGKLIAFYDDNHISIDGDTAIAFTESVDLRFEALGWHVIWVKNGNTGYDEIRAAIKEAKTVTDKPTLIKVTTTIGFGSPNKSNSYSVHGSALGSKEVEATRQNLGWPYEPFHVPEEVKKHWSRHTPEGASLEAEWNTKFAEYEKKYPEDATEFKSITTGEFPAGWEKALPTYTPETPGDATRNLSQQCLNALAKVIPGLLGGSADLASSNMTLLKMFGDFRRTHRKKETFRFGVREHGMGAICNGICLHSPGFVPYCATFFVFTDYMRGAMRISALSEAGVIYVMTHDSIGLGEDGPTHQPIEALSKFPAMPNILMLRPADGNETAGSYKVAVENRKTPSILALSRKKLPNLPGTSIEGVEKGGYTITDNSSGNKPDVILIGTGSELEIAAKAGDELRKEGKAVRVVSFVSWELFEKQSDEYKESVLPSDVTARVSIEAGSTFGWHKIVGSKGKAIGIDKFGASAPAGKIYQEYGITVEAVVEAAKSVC
In words: Herbicide tolerance of transiently transformed tobacco leaf discs, PSII yield (PAM imaging). In kind it is cell-based. The note with it: IC50 of PSII yield inhibition, Nicotiana benthamiana leaf discs expressing Spinacia oleracea Transketolase wildtype versus empty vector-transformed leaf discs.

As to `CC(C)N1C(=O)c2ccccc2NS1(=O)=O` [Bentazon], in data set [1], the Tolerance factor is given as 13.4.

Turning to `CC(C)N(C)S(=O)(=O)NC(=O)c1cc(-n2c(=O)cc(C(F)(F)F)n(C)c2=O)c(F)cc1Cl` [Saflufenacil], the Tolerance factor is recorded as 177 in data set [2] and 150 in data set [3].

As to `C/C=C1/CC2=C(C(=O)OC2=O)[C@H](CCC)[C@H](O)C(=O)C[C@@H]1O` [Cornexistin], in data set [4], the Tolerance factor is on record as 3.6.
